Structures can show the parent of a compound that is named as a salt. Where two headings read alike, the source gives them in different places. Peptide text beside a SMILES is read from it.
What was measured:
Liposome dye release = assay type: biochemical
Description: In this example, a dye pair consisting of the fluorescent molecule 8-aminonapthalene-1,3,6-trisulfonic acid (ANTS) and its quencher molecule p-xylene-bis-pyridinium bromide (DPX) are used. The mixture of free dye molecules, dye free liposomes, and liposomes containing encapsulated ANTS-DPX are separated by size exclusion chromatography. In the assay, the test peptide is incubated with the ANTS-DPX containing liposomes and the fluorescence due to ANTS release to the outside of the liposome is measured over time.
Using this assay, peptide activity, measured by dye release, is shown to be extremely sensitive to the composition of the liposomes at many liposome to peptide ratios (L/P) (FIG. 7). […] This […] selectivity may mimic that observed […] for bacterial cells in the presence of mammalian cells.
ANTS/DPX can be replaced with fluorescein isothiocyanate-labeled dextran (FD-4), molecular weight 4,400, in the egg PC liposomes.

E.coli strain ML-35 = assay type: cell-based; details: for Growth time of cells at which maximum activity occurs: 50 μg/ml peptide
[1] = tested on: MSSA (Smith, ATCC # 19640); assay: MSSA infection, mouse survival; assay type: in vivo, mice; details: formulation D
[2] = tested on: S. epidermidis (ATCC # 12228); assay: S. epidermidis infection, mouse survival; assay type: in vivo, mice
MRSA (ATCC # 33591) = assay: MRSA infection, mouse survival; assay type: in vivo, mice; details: for Percentage of Animals Surviving, Treatment: iv, formulation D
A. calcoaceticus [3] = assay: MIC of APS-modified and parent peptides; assay type: cell-based; details: A. calcoaceticus AC002
E. cloacae [4] = assay: MIC of APS-modified and parent peptides; assay type: cell-based; details: E. cloacae ECL007
E. coli [5] = assay: MIC of APS-modified and parent peptides; assay type: cell-based; details: E. coli ECO005
E. faecalis [6] = assay: MIC of APS-modified and parent peptides; assay type: cell-based
Description: (§1) All biological assays that compare APS-modified peptides with unmodified peptides are performed on an equimolar ratio. The concentration of APS-modified peptides can be determined by spectrophotometric measurement, which is used to normalize concentrations for biological assays.
(§2) APS-modified peptides are at least as potent as the parent peptides in in vitro assays performed as described herein. MIC values against gram positive bacteria are presented for several APS-modified peptides and compared with the values obtained using the parent peptides (Table 22).

S. aureus [7] = assay: MIC of APS-modified and parent peptides; assay type: cell-based
Description: as §1, §2

K. pneumoniae [8] = assay: MIC of APS-modified and parent peptides; assay type: cell-based; details: K. pneumoniae KP001
P. aeruginosa [9] = assay: MIC of APS-modified and parent peptides; assay type: cell-based; details: P. aeruginosa PA004
S. maltophilia [10] = assay: MIC of APS-modified and parent peptides; assay type: cell-based; details: S. maltophilia SMA002
S. marcescens [11] = assay: MIC of APS-modified and parent peptides; assay type: cell-based; details: S. marcescens SMS003
A. calcoaceticus [12] = assay: Broth dilution assay (MIC); assay type: cell-based; details: A. calcoaceticus AC001
Description: (§3) This assay also uses calcium and magnesium supplemented Mueller Hinton broth as the growth medium. Typically 100 μl of broth is dispensed into each well of a 96-well microtitre plate and 100 μl volumes of two-fold serial dilutions of the peptide analogue are made across the plate. One row of wells receives no peptide and is used as a growth control. Each well is inoculated with approximately 5×10^5 CFU of bacteria and the plate is incubated at 35-37° C. for 16-20 hours.
(§4) For example, MIC values were established for a series of peptide analogues against S. aureus strains.

E. cloacae [13] = assay: Broth dilution assay (MIC); assay type: cell-based; details: E. cloacae ECL007
Description: as §3, §4

E. coli [14] = assay: Broth dilution assay (MIC); assay type: cell-based; details: E. coli ECO005
Description: as §3, §4

E. faecalis [15] = assay: Broth dilution assay (MIC); assay type: cell-based; details: E. faecalis EFS004
Description: as §3, §4

K. pneumoniae [16] = assay: Broth dilution assay (MIC); assay type: cell-based; details: K. pneumoniae KP001
Description: as §3, §4

P. aeruginosa [17] = assay: Broth dilution assay (MIC); assay type: cell-based; details: P. aeruginosa PA004
Description: as §3, §4

S. aureus [18] = assay: Broth dilution assay (MIC); assay type: cell-based; details: S. aureus SA002
Description: as §3, §4

S. epidermidis = assay: Broth dilution assay (MIC); assay type: cell-based; details: S. epidermidis SE005
Description: as §3, §4

S. maltophilia [19] = assay: Broth dilution assay (MIC); assay type: cell-based; details: S. maltophilia SMA002
Description: as §3, §4

S. marcescens [20] = assay: Broth dilution assay (MIC); assay type: cell-based; details: S. marcescens SMS003
Description: as §3, §4

[21] = Acute single dose toxicity in isotonic saline (ip, iv, sc); assay type: in vivo, Swiss CD1 mice; details: 5 days
Description: The acute, single dose toxicity of various indolicidin analogues is tested in Swiss CD1 mice using various routes of administration. In order to determine the inherent toxicities of the peptide analogues in the absence of any formulation/delivery vehicle effects, the peptides are all administered in isotonic saline with the final pH between 6 and 7.
After administration, the mice are observed for a period of 5 days.

Row | Molecule | Corrected MIC (A. calcoaceticus [3]) | Corrected MIC (E. coli [5]) | Corrected MIC (E. faecalis [6]; E. faecalis EFS001) | Corrected MIC (E. faecalis [6]; E. faecalis EFS004) | Corrected MIC (E. faecalis [6]; E. faecalis EFS008) | Corrected MIC (S. aureus [7]; S. aureus SA010) | Corrected MIC (S. aureus [7]; S. aureus SA014) | Corrected MIC (S. aureus [7]; S. aureus SA018) | Corrected MIC (S. aureus [7]; S. aureus SA025) | Corrected MIC (S. maltophilia [10]) | MIC (A. calcoaceticus [12]) | MIC (E. cloacae [13]) | MIC (E. coli [14]) | MIC (E. faecalis [15]) | MIC (K. pneumoniae [16]) | MIC (P. aeruginosa [17]) | MIC (S. aureus [18]) | MIC (S. epidermidis) | MIC (S. maltophilia [19]) | MIC (S. marcescens [20]) | other results
1 | I L K K W P W W P W R R K [MBI 11CN] | 4 µg/mL | 16 µg/mL | 32 µg/mL | 8 µg/mL | 64 µg/mL | 2 µg/mL | 16 µg/mL | 64 µg/mL | 4 µg/mL | 128 µg/mL | – | – | – | – | – | – | – | – | – | – | Release of FD-4 (fluorescein isothiocyanate-labeled dextran, MW 4,400) (Liposome dye release; egg PC liposomes): No increase in FD-4 fluorescence is detected; Membrane permeabilizing activity (ANTS/DPX dye release) (Liposome dye release; egg PC liposomes with cholesterol added, even at very high lipid to peptide molar ratios): virtually abolishes membrane permeabilizing activity; ONPG hydrolysis diminished, cells pre-incubated with valinomycin vs no pre-incubation (E.coli strain ML-35): approximately 50%; mice rescued from MSSA infection ([1]; 35.7 mg/kg ip, 60 minutes post-infection): 100%; activity at lower dose levels ([1]; dose levels lower than 35.7 mg/kg ip): little or no activity; survival of mice ([2]; iv, formulation D, treatment 15 minutes post-infection): Efficacy is observed at all three dose levels; survival of mice ([2]; iv, formulation D, treatment 30 minutes post-infection): less activity; survival of mice ([2]; iv, formulation D, treatment 60 minutes post-infection): no significant effect; survival of mice ([2]; single iv injection of […] 15 minutes post-infection): best survival rate; survival of mice (MRSA (ATCC # 33591); 1 mg/kg (20 min) protocol: five […] iv injections at −10, −5, 0, +5, +10 mins): delayed the death of the mice to a significant extent; survival of mice (MRSA (ATCC # 33591); 1 mg/kg (2 hr) protocol: five […] iv injections 1 hour apart): no improvement in survivability over the negative control; survival of mice (MRSA (ATCC # 33591); 5 mg/kg protocol: three 5.5 mg/kg iv injections at −5, +55, +115 mins): no improvement in survivability over the negative control; Percentage of Animals Surviving, Treatment (MRSA (ATCC # 33591); 6 hours post-infection): 70%; Percentage of Animals Surviving, Treatment (MRSA (ATCC # 33591); 10 hours post-infection): 30%; Corrected MIC (E. cloacae [4]): >128 µg/mL; Corrected MIC (S. aureus [7]; S. aureus SA011): 8 µg/mL; Corrected MIC (S. aureus [7]; S. aureus SA093): 2 µg/mL; Corrected MIC (K. pneumoniae [8]): 128 µg/mL; Corrected MIC (P. aeruginosa [9]): >128 µg/mL; Corrected MIC (S. marcescens [11]): >128 µg/mL
2 | I L P W K W P W W P W R R [MBI 10CN] | – | – | – | – | – | – | – | – | – | – | 64 µg/mL | 256 µg/mL | 64 µg/mL | 64 µg/mL | 64 µg/mL | >256 µg/mL | 16 µg/mL | 8 µg/mL | 64 µg/mL | >256 µg/mL | ONPG hydrolysis diminished, cells pre-incubated with valinomycin vs no pre-incubation (E.coli strain ML-35): approximately 50%; survival at lower doses ([1]; below 14.5 mg/kg ip): clear dose-dependent survival
3 | I L R R W P W W P W R R K [MBI 11B1CN] | 2 µg/mL | 8 µg/mL | – | 8 µg/mL | 32 µg/mL | 1 µg/mL | 8 µg/mL | 16 µg/mL | 1 µg/mL | 128 µg/mL | 64 µg/mL | >256 µg/mL | 64 µg/mL | 64 µg/mL | >256 µg/mL | 64 µg/mL | 32 µg/mL | 4 µg/mL | 32 µg/mL | >256 µg/mL | Corrected MIC (S. aureus [7]; S. aureus SA093): 1 µg/mL; Corrected MIC (P. aeruginosa [9]): 128 µg/mL; Corrected MIC (S. marcescens [11]): >128 µg/mL
4 | I L R R W P W W P W R K [MBI 11B2CN] | – | – | – | – | – | – | – | – | – | – | 128 µg/mL | >256 µg/mL | 64 µg/mL | 64 µg/mL | >256 µg/mL | 256 µg/mL | 32 µg/mL | 4 µg/mL | 32 µg/mL | >256 µg/mL | –
5 | i L K K W P W W P W R R k [MBI 11E3CN] | 2 µg/mL | 8 µg/mL | 8 µg/mL | 2 µg/mL | 16 µg/mL | 1 µg/mL | 4 µg/mL | 16 µg/mL | 1 µg/mL | 64 µg/mL | – | – | – | – | – | – | – | – | – | – | Corrected MIC (E. cloacae [4]): >128 µg/mL; Corrected MIC (S. aureus [7]; S. aureus SA011): 4 µg/mL; Corrected MIC (S. aureus [7]; S. aureus SA093): 1 µg/mL; Corrected MIC (K. pneumoniae [8]): 8 µg/mL; Corrected MIC (P. aeruginosa [9]): 128 µg/mL; Corrected MIC (S. marcescens [11]): >128 µg/mL
6 | I L K K I P I I P I R R K [MBI 11A2CN] | – | – | – | – | – | – | – | – | – | – | >256 µg/mL | >256 µg/mL | >256 µg/mL | >256 µg/mL | >256 µg/mL | >256 µg/mL | >256 µg/mL | 256 µg/mL | >256 µg/mL | >256 µg/mL | –
7 | I L R W P W W P W R R K [MBI 11B7CN] | – | 8 µg/mL | 8 µg/mL | 8 µg/mL | 32 µg/mL | – | – | – | – | 32 µg/mL | 64 µg/mL | >256 µg/mL | 64 µg/mL | 64 µg/mL | 256 µg/mL | 256 µg/mL | 16 µg/mL | 4 µg/mL | 32 µg/mL | >256 µg/mL | Growth time of cells at which maximum activity occurs (E.coli strain ML-35; early mid-log): 140 min; Growth time of cells at which maximum activity occurs (E.coli strain ML-35; late mid-log): 230 min; Effect on membrane permeabilizing activity (E.coli strain ML-35; peptide pre-incubated in HEPES/sucrose buffer with 5 mM Mg2+): significant inhibition; Effect on membrane permeabilizing activity (E.coli strain ML-35; peptide pre-incubated in HEPES/sucrose buffer with 150 mM NaCl): significant inhibition
8 | CC[C@H](C)[C@H](N)C(=O)N[C@@H](CC(C)C)C(=O)N[C@@H](CCCCN)C(=O)N[C@@H](CCCCN)C(=O)N[C@@H](Cc1c[nH]c2ccccc12)C(=O)N1CCC[C@H]1C(=O)N[C@@H](Cc1c[nH]c2ccccc12)C(=O)N[C@@H](Cc1c[nH]c2ccccc12)C(=O)N1CCC[C@H]1C(=O)N[C@@H](Cc1c[nH]c2ccccc12)C(=O)N[C@@H](CCCNC(=N)N)C(=O)N[C@@H](CCCNC(=N)N)C(=O)N[C@@H](CCCCN)C(N)=O [MBI 11CN HCl, I L K K W P W W P W R R K] (H-ILKKWPWWPWRRK-NH2; N-terminus assumed) | – | – | – | – | – | – | – | – | – | – | – | – | – | – | – | – | – | – | – | – | LD90-100 [21]: 8.0 mg/kg

— patent US6538106B1, “Compositions and methods for treating infections using analogues of indolicidin” (priority 1996, dated 2003)
